The target of this assay is T1, 11β-hydroxysteroid dehydrogenase type 1 (11β-HSD1), mouse isoform (Mus musculus, UniProt P50172).
T1 construct: gene Hsd11b1; native 11β-HSD1 in differentiated C2C12 myotubes
The assay can be described thus: Cell-based cortisone to cortisol conversion in C2C12 myotubes, LCMS/MS.

The values below come from PMC4127523, “A novel 11β-hydroxysteroid dehydrogenase type1 inhibitor CNX-010-49 improves hyperglycemia, lipid profile and reduces body weight in diet induced obese C57B6/J mice with a potential to provide cardio protective benefits” (BMC Pharmacology & Toxicology, 2014).

T1 sequence (P50172 whole entry, canonical isoform): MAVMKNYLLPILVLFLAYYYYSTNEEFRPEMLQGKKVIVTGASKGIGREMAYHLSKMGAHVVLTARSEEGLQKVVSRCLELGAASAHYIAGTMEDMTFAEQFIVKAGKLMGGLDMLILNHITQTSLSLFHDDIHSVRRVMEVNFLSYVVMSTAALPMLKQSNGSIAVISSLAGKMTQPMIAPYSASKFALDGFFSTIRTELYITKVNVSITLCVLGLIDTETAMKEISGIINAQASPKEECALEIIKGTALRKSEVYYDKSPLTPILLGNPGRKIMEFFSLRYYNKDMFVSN

As to CNX-010-49, the half-maximal inhibitory concentration (IC50) amounted to 64 nM.

For orientation: IC50 means the point on the concentration scale where inhibition reaches its midpoint.
